The values that follow come from PubChem BioAssay (NCI).

Where “and” joins values, the source holds several entries; their conditions need not be identical. Equal entries are not always repeated.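 Tested at 5 concentrations; 48 h exposure; 96-well plates; endpoints linearly interpolated, else capped at highest concentration. At the GI50, growth is halved. TGI denotes the concentration required for complete inhibition of growth.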 *1 amine or outer side, *2 acyl side, *3 side chain or, on linkers, in order; H or OH if unused. Where a SMILES comes first, the peptide text is derived from it. Bridges are numbered along the chain shown (N, C = ends). Roman numbers before positions name the chains, in order. [ ]: non-standard residue; d: D form. Actinocin(9to1) = Cc1c2oc3c(C)ccc(C(=O)[*:1])c3nc-2c(C(=O)[*:2])c(N)c1=O; NMeH = CN[CH](Cc1c[nH]cn1)C(=O)O; Sar = CNCC(=O)O

What all share (assay): DTP human tumour cell line panel, 48 h
In test [1] the test system is TK-10 renal.
Test [2] concerns EKVX NSCLC.
Test [3] relates to OVCAR-5 ovarian.
For test [4], the system named is K-562 leukemia.
The test system of test [5] is SK-OV-3 ovarian.
Test [6] concerns NCI-H522 lung.
In test [7] the test system is MOLT-4 leukemia.
For test [8], the system named is CAKI-1 renal.
The test system of test [9] is A498 renal.
The subject of test [10] is OVCAR-4 ovarian.

On to `C=CCn1c(=S)sc2c(C(=O)OCC)c3c(C)cc(C)cn3c2c1=O`, for which the TGI in test [1], in test [2], in test [3], in test [4], in test [5] and in test [6] was over 100 µM in each case. Besides, the TGI in test [7] and in test [8] was over 100 µM in each case.
Take `N#C/C(=C/C=C/c1ccco1)C(N)=O`: the TGI in [1], in [2], in [3], in [5], in [6] and in test [8] was over 10 µM throughout.
In the case of `C=C(C)[C@@H]1CCC=C2CC[C@]3(C)[C@H](CC[C@@H]4[C@@]5(C)CCCNC(C)(C)[C@@H]5CC[C@]43C)[C@H]21`, the GI50 in test [1] was 2.02 µM; in test [2] it was 2.17 µM; in test [9], 11.7 µM; in test [3], 2.01 µM; in [5], 12.1 µM; in test [6] it was 2.28 µM. Moreover, in test [7], the GI50 was 1.87 µM. The TGI was 4.98 µM in test [1]; 5.6 µM in test [2]; 26.9 µM in test [9]; 4.46 µM in test [3]; 27.3 µM in test [5]; 5.64 µM in test [6]. For the same compound, in test [7], the TGI worked out at 4.09 µM.
Turning to `CCOC(=O)NC(=O)c1cn(CCN2CCN(C(=O)CNC(=O)CNC(=O)Cn3cc(C(=O)NC(=O)OCC)c(=O)[nH]c3=O)CC2)c(=O)[nH]c1=O`, the TGI in test [1], in test [9], in [3], in test [4], in test [5] and in test [6] was over 100 µM throughout. Further, the TGI in test [7] and in test [8] was over 100 µM throughout.
For `CC(C)C1CO[C@]2(C)CCC(=O)N12` (stereo partly specified), the TGI in [1], in [2], in test [10], in [4], in test [5] and in [6] was over 100 µM in each case. The TGI in test [7] and in [8] was over 100 µM in each case.
On to `O=S(=O)(NC1CCCCC1)c1ccc2c(c1)OCCOCCOCCOCCO2`, for which the TGI in test [1], in [2], in test [9], in [4], in [5] and in test [6] was over 100 µM throughout. Also, the TGI in test [7] and in test [8] was over 100 µM throughout.
As for `CCC1(O)CC(OC2CC(N(C)C)C(OC3CC(O)C(OC4OC(C)C(=O)C=C4N)C(C)O3)C(C)O2)c2c(cc3c(c2O)C(=O)c2c(O)cccc2C3=O)C1C(=O)OC` (stereo unspecified), the GI50 in test [1] is 0.0398 µM; in [2], 0.0327 µM; in test [3] it was 0.0152 µM. For the same compound, the TGI in [1] was 1.1 µM and 2.31 µM; in test [2] it was 0.539 µM and 1.43 µM; in [3], 1.37 µM and 2.04 µM; in test [4], 0.262 µM and 1.73 µM; in test [5], 2.51 µM and 4.32 µM; in test [6], 0.319 µM. In addition, the TGI in test [8] is 0.308 µM and 0.0365 µM.
In the case of `C=C1C(=O)O[C@H]2[C@H]1CC/C(COC(=O)CCCCCC(=O)OC/C1=C/CC[C@@]3(C)O[C@H]3[C@H]3OC(=O)C(=C)[C@@H]3CC1)=C\CC[C@@]1(C)O[C@@H]21`, the GI50 is 2.58 µM in [1]; 2.84 µM in [2]; 11.4 µM in test [9]; 1.97 µM in test [3]; 2.92 µM in test [10]; 1.18 µM in test [4]. Further, the GI50 in [5] was 12 µM; in test [6], 1.72 µM; in test [7] it was 0.633 µM. The TGI in [1] was determined as 5.7 µM; in test [2], 11.5 µM; in test [9], 27.4 µM; in test [3], 4.17 µM; in [10], 15.3 µM; in test [4], 10.2 µM. Moreover, the TGI in [5] stood at 31 µM; in test [6], 3.44 µM; in test [7], 4.1 µM.
As for `CCCn1c2c(c3c(O)cccc31)C(=O)c1ccccc1-2`, the GI50 in [1] was 16.4 µM; in test [2] it was 15.9 µM; in [3], 3.72 µM; in test [10] it was 0.0961 µM; in [4], over 100 µM; in test [5] it was 23.7 µM. Besides, the GI50 in test [6] is 23 µM; in test [7] it was 0.0475 µM; in [8], 20.2 µM. For the same compound, the TGI was over 100 µM in test [1]; over 100 µM in [2]; over 100 µM in test [3]; 6.12 µM in test [10]; over 100 µM in [4]; over 100 µM in test [5]. Also, the figures for the TGI in [6], in [7] and in test [8] were over 100 µM, 7.31 µM and 61.9 µM, respectively.
As for `COc1cc2c(cc1OC)-c1ncc3c(OC)ccc(OC)c3c1C2`, the GI50 in [1] is 16.8 µM; in test [2], 16.9 µM; in test [3], 44 µM; in test [10] it was 71.9 µM; in test [4], 12.3 µM; in test [5], 37.3 µM. The GI50 in test [6] was 2.94 µM; in [8] it was 14.4 µM. Further, the concentration for total growth inhibition (TGI) in [1] is 43.6 µM; in [2], 54.9 µM; in test [3], over 100 µM; in test [10], over 100 µM; in test [4], 82 µM; in test [5], 98.7 µM. The TGI in [6] was 31.8 µM; in [8], over 100 µM.
For `Cc1ccc(/C=C(\C#N)c2cc3ccccc3n2C)cc1`, the GI50 in [1] was over 100 µM; in test [2], 0.58 µM; in test [9], 0.217 µM; in [3], 0.632 µM; in [4] it was 0.153 µM; in [5], over 100 µM. The GI50 in test [6] was 0.269 µM; in [7], 0.467 µM; in test [8] it was 0.406 µM. Moreover, the TGI in test [1] was over 100 µM; in test [2], over 100 µM; in test [9], 0.808 µM; in test [3], over 100 µM; in [4], over 100 µM; in test [5] it was over 100 µM. Moreover, the TGI in test [6] is 16.2 µM; in [7], over 100 µM; in test [8], over 100 µM.
Take `C#CC1(O)CCC2C3CCc4cc(Oc5nc(F)nc(-c6c7ccccc7c7n6CCS7)n5)ccc4C3CC[C@@]21C` (stereo partly specified): the TGI in test [1] was 71.3 µM; in [3], over 100 µM; in test [10] it was 68.6 µM; in test [4], over 100 µM; in test [6], 20.9 µM; in test [7] it was over 100 µM. Besides, the TGI in test [8] came out at 73 µM.
With `Cc1c2oc3c(C)ccc(C(=O)NC4C(=O)NC(C(C)C)C(=O)N5CCCC5C(=O)N(C)CC(=O)N(C)C(Cc5cnc[nH]5)C(=O)OC4C)c3nc-2c(C(=O)NC2C(=O)NC(C(C)C)C(=O)N3CCCC3C(=O)N(C)CC(=O)N(C)C(Cc3cnc[nH]3)C(=O)OC2C)c(N)c1=O` (stereo unspecified) (I: TVP[Sar][NMeH] / II: TVP[Sar][NMeH]; ester I:1-I:C, II:1-II:C; linker I:N-II:N via Actinocin(9to1); configuration not given here), the TGI in test [1], in test [2], in test [3], in test [10], in test [4] and in [5] was over 100 µM in each case. Further, the TGI in [6], in test [7] and in [8] was over 100 µM each time.
Consider `O=C(Oc1cccc(Cl)c1)c1ccccc1Nc1ccnc(C(F)(F)F)c1`, for which the GI50 in [1] was 85 µM; in [2], 22.2 µM; in [3] it was 13.8 µM; in test [4] it was 3.27 µM; in [6] it was 4.21 µM; in test [7], 0.938 µM. Further, the GI50 in [8] is 2.13 µM. Further, the TGI in [1] is over 100 µM; in test [2] it was 46.4 µM; in test [3] it was 57 µM; in test [4] it was 34.3 µM; in test [6], 41.1 µM; in test [7], over 100 µM. For the same compound, the TGI in [8] was 4.1 µM.
Regarding `C(/C=N/NC1=NCCCCN1)=N\NC1=NCCCCN1`, the TGI in test [1], in test [2], in [3], in test [10], in test [4] and in test [5] was over 100 µM throughout. In addition, the TGI in [6], in [7] and in test [8] was over 100 µM throughout.
For the compound `COc1cc(/C=C/c2ccc(C)cc2)cc(OC)c1OC`, the TGI in test [1] was 18 µM; in test [2], over 100 µM; in [3], 21.9 µM; in test [10] it was 44.7 µM; in [4], over 100 µM; in [5], 39 µM. Moreover, the figures for the TGI in test [6], in test [7] and in test [8] were 5.7 µM, 25.6 µM and over 55.2 µM, respectively.
As to `C/C(CC(=O)NCCc1ccccc1)=N\NS(=O)(=O)c1ccc(C)cc1`, the TGI in test [1], in test [2], in test [9], in test [3], in test [4] and in test [5] was over 100 µM each time. Besides, the TGI in [6] and in test [7] was over 100 µM each time.
As for `COc1ccc2c(c1)[n+](=O)c(C(=O)c1cccs1)c(C(F)(F)F)n2[O-]`, the GI50 in test [1] is 1.07 µM; in test [2], 1.48 µM; in [3], 4.81 µM; in [10], 16.8 µM; in [4], 2.56 µM; in test [5], 6.41 µM. Moreover, the results for the GI50 in test [6], in [7] and in [8] were 2 µM, 24.9 µM and 2.87 µM, respectively. For the same compound, the TGI was 8.77 µM in test [1]; 8.21 µM in test [2]; over 50 µM in [3]; over 50 µM in test [10]; over 50 µM in test [4]; over 50 µM in test [5]. Further, the TGI was 12.8 µM in test [6], over 50 µM in test [7] and 11.7 µM in [8].
On to `O=c1cc(-c2ccccn2)[nH]c2cccc(F)c12`, for which the TGI in test [1], in test [2], in test [3], in [10], in test [4] and in test [5] was over 100 µM in each case. Further, the TGI in test [6] and in [7] was over 100 µM in each case.
Regarding `Fc1cccc(F)c1C1SCc2nc3cc(Cl)c(Cl)cc3n21` (stereo unspecified), the TGI in [1], in test [2], in test [3], in test [10], in [4] and in test [5] was over 100 µM throughout. The TGI in test [6], in test [7] and in test [8] was over 100 µM each time.
For `[N-]=[N+]=NC(c1cn(C2CC(O)C(CO)O2)c(=O)[nH]c1=O)C(Cl)Br` (stereo unspecified), the TGI in test [1], in test [2], in [4], in test [6], in test [7] and in test [8] was over 100 µM each time.
For `COc1ccc(-c2c(C)c(C(=O)O)nc(-c3ccc4c(O)c(OC)c5c(c4n3)=NC(C)(C)N=5)c2N)c(O)c1OC`, the TGI was 72.7 µM in [1]; over 100 µM in test [2]; over 100 µM in test [3]; over 100 µM in test [10]; 47.9 µM in [4]; 65.6 µM in [5]. Besides, the TGI in [6] was found to be 24.5 µM; in test [7], 29.7 µM.
In the case of `COc1ccc2c(c1)/C(=C\c1ccncc1)C(=O)N2`, the GI50 was 15.1 µM in [1]; 13.9 µM in test [2]; 23 µM in test [3]; 3.41 µM in [4]; 19.5 µM in [5]; 4 µM in test [6]. Moreover, in test [8], the GI50 is 3.64 µM. Also, the TGI in test [1] stood at 30.5 µM; in [2], 33 µM; in test [3], 49.2 µM; in test [4] it was 9.56 µM; in [5] it was 79.9 µM; in [6], 9.18 µM. In test [8], this compound came in with a TGI of 15.9 µM.

By TGI is commonly meant the concentration at which net growth stops. In general, GI50 refers to the concentration that inhibits growth by half.
